How the values were obtained:
Assay type in all cases: in vivo, Wistar rats
HIF-1 Alpha mRNA = experiment: Real-time PCR of retinal mRNA after ischaemia/reperfusion: HIF-1 Alpha; conditions: 100 μM SAC pre-treatment, 24 hours after I/R; control 0.56±0.15, vehicle 1.23±0.23; n=6
Description: (§1) The rats (200-250 g) were anaesthetized and placed in a stereotaxic frame. The anterior chamber of one eye was cannulated with a 30-gauge needle connected to a 0.9% saline reservoir; this caused a high IOP (HIOP) of 120 mmHg for 60 minutes. Eye fundus whitening and a low ERG response confirmed induction of an ischaemic insult. A sham procedure was carried out on the controls. Drug administration involved the pre-administration (15-minute before 60-minute HIOP induced retinal ischaemia) of SAC (25, 50, 100 μM) or vehicle (saline; control). The ischemic eye of each test rat was treated with or without a single intravitreous injection of 5 μl of the test compound. […] The levels of Thy-1, HIF-1 Alpha, VEGF and MMP-9 mRNAs present in the retinas were determined using a real-time PCR technique. […] Relative quantification (a comparative method) was performed using the house keeping gene Beta-actin as the internal standard. This process allows the normalized quantification of the mRNA target (Ct) and takes into account the differences in the amount of total RNA added to each reaction (ΔCt). The relative HIF-1 Alpha/VEGF/MMP-9 expression changes were calculated as fold changes relative to the control with respect to the calibrator (ΔΔCt), which was represented by the control retina. […] The data obtained for each treatment were pooled, and a total percentage change relative to the control was calculated. […]

[1] = system: non-ischaemic (normal) eye; experiment: Flash ERG b-wave of the non-ischaemic (normal) eye given SAC (adverse effects); conditions: 100 μM SAC, n=3
Description: (§2) Drug administration involved the pre-administration (15-minute before 60-minute HIOP induced retinal ischaemia) of SAC (25, 50, 100 μM) or vehicle (saline; control). The ischemic eye of each test rat was treated with or without a single intravitreous injection of 5 μl of the test compound. In addition, SAC (100 μM) was administered to the non-ischaemic eye (normal) to see whether SAC has any adverse effects. In both cases, the paired normal eye was untreated.
(§3) Flash ERG recordings were performed on all rats before retinal ischaemia (day 0), as well as at 1, 3, 5, and 7 days after ischaemia and treatment with or without the defined chemicals. The animals were dark adapted and anaesthetized to do this. A strobe was placed 2 cm in front of the animal to provide a stimulus of 0.5 Hz. Fifteen consecutive responses were recorded at two-second intervals and at 10 kHz; the responses were amplified and averaged using an amplifier P511/regulated power supply RPS 107/stimulator PS22 (Grass-Telefactor; Astro-Med Inc., West Warwick, R.I., USA). For comparative purposes, the b-wave ratio, namely the b-wave amplitude of the ischaemic/sham-operation eye or the untreated/SAC-treated non-ischaemic (normal) eye as compared with that of the contralateral normal eye, was calculated.

[2] = system: ischaemic retina (HIOP induced retinal ischaemia/reperfusion); experiment: Flash ERG b-wave after high IOP induced retinal ischaemia/reperfusion, intravitreous pre-treatment; conditions: for ERG b-wave ratio (ischaemic eye vs. fellow normal eye): n=6; for pre-ischaemia b-wave ratio baseline (day 0): day 0 baseline
Description: All investigations involving the use of animals conformed to the Association for Research in Vision and Ophthalmology Statement for the Use of Animals in Ophthalmology and Vision Research and were approved by the Institutional Review Board of Cheng Hsin General Hospital (Taipei, Taiwan). The six-week-old Wistar rats were kept in an animal house where the humidity was 40-60% and the temperature 19-23° C. They were kept on a 12-hour light/dark cycle with 12 to 15 air changes/hour. The animals were provided with food and water ad libitum.
The rats (200-250 g) were anaesthetized and placed in a stereotaxic frame. The anterior chamber of one eye was cannulated with a 30-gauge needle connected to a 0.9% saline reservoir; this caused a high IOP (HIOP) of 120 mmHg for 60 minutes. Eye fundus whitening and a low ERG response confirmed induction of an ischaemic insult. A sham procedure was carried out on the controls.
as §2, §3

Thy-1 mRNA = experiment: Real-time PCR of retinal mRNA after ischaemia/reperfusion: Thy-1; conditions: 100 μM SAC pre-treatment, 24 hours after I/R; control 3.28±1.09, vehicle 0.29±0.07; n=6
Description: as §1

C=CCSC[C@H](N)C(=O)O [SAC, S-allyl L-cysteine]
HIF-1 Alpha mRNA ratio in the retina (HIF-1 Alpha mRNA): 0.76±0.09 | b-wave amplitude (ratio) of the non-ischemic (normal) eye vs. the fellow normal eye ([1]; day 0): 1.11±0.05 | b-wave amplitude (ratio) of the non-ischemic (normal) eye vs. the fellow normal eye ([1]; day 1): 1.05±0.06 | b-wave amplitude (ratio) of the non-ischemic (normal) eye vs. the fellow normal eye ([1]; day 5): 1.06±0.12 | b-wave amplitude (ratio) of the non-ischemic (normal) eye vs. the fellow normal eye ([1]; day 7): 0.91±0.09 | adverse effect on the b-wave amplitude (ratio) of the non-ischemic (normal) eye ([1]; days 0 to 7): no significant adverse effect | ERG b-wave ratio (ischaemic eye vs. fellow normal eye) ([2]; 25 μM SAC, day 1 after I/R, vehicle 0.19±0.03): 0.47±0.10 | ERG b-wave ratio (ischaemic eye vs. fellow normal eye) ([2]; 25 μM SAC, day 3 after I/R, vehicle 0.18±0.05): 0.44±0.11 | ERG b-wave ratio (ischaemic eye vs. fellow normal eye) ([2]; 25 μM SAC, day 5 after I/R, vehicle 0.24±0.05): 0.54±0.09 | ERG b-wave ratio (ischaemic eye vs. fellow normal eye) ([2]; 25 μM SAC, day 7 after I/R, vehicle 0.18±0.02): 0.55±0.06 | ERG b-wave ratio (ischaemic eye vs. fellow normal eye) ([2]; 50 μM SAC, day 1 after I/R, vehicle 0.19±0.03): 0.56±0.03 | ERG b-wave ratio (ischaemic eye vs. fellow normal eye) ([2]; 50 μM SAC, day 3 after I/R, vehicle 0.18±0.05): 0.60±0.05 | ERG b-wave ratio (ischaemic eye vs. fellow normal eye) ([2]; 50 μM SAC, day 5 after I/R, vehicle 0.24±0.05): 0.65±0.02 | ERG b-wave ratio (ischaemic eye vs. fellow normal eye) ([2]; 50 μM SAC, day 7 after I/R, vehicle 0.18±0.02): 0.61±0.05 | ERG b-wave amplitude ([2]; 100 μM SAC intravitreous pre-treatment, 1 day after I/R, sham control 0.35 mV, vehicle 0.08 mV): 0.24 mV | ERG b-wave amplitude, % of the control value ([2]; 100 μM SAC pre-treatment, 1 day after I/R, vehicle 22.86%): 68.57 % of the control value | ERG b-wave ratio (ischaemic eye vs. fellow normal eye) ([2]; 100 μM SAC, day 1 after I/R, vehicle 0.19±0.03): 0.64±0.04 | ERG b-wave ratio (ischaemic eye vs. fellow normal eye) ([2]; 100 μM SAC, day 3 after I/R, vehicle 0.18±0.05): 0.79±0.03 | ERG b-wave ratio (ischaemic eye vs. fellow normal eye) ([2]; 100 μM SAC, day 5 after I/R, vehicle 0.24±0.05): 0.84±0.03 | ERG b-wave ratio (ischaemic eye vs. fellow normal eye) ([2]; 100 μM SAC, day 7 after I/R, vehicle 0.18±0.02): 0.84±0.04 | pre-ischaemia b-wave ratio baseline (day 0) ([2]; group pre-treated with 25 μM SAC): 1.08±0.07 | pre-ischaemia b-wave ratio baseline (day 0) ([2]; group pre-treated with 50 μM SAC): 0.98±0.04 | pre-ischaemia b-wave ratio baseline (day 0) ([2]; group pre-treated with 100 μM SAC): 0.92±0.04 | Thy-1:β-actin mRNA ratio in the retina (Thy-1 mRNA): 1.25±0.30

From US8569372B2, “Method for preventing or treating a disease, disorder or condition induced by retina ischemia” (priority 2011, dated 2013)
